PMC6897945, “CytA, a reductase in the cytorhodin biosynthesis pathway, inactivates anthracycline drugs in Streptomyces” (Communications Biology, 2019)
≈ marks a conversion by molar mass, not a printed value. Like-named read-outs stand apart in the source and are kept apart here.

Experiments:
CytA = test: Enzyme kinetics of CytA (formation of deglycosylation products, anaerobic); assay type: biochemical, Streptomyces sp. SCSIO 1666; conditions: substrate of CytA; 0.5 μM CytA, 20 μM NADH, anaerobic
Experimental: Enzymatic reactions were carried out under anaerobic conditions in an anaerobic workstation (Don Whitley Scientific A45) containing a gas phase of N2/H2/CO2 (80:10: 10%, by vol.). ^1H, ^13C, and 2D (COSY, HMQC, HMBC and NOESY) NMR spectra were recorded at 25 °C with an Avance 700 MHz spectrometer instruments (Bruker). High-resolution mass spectra were obtained with a Maxis quadrupole-time-of-flight mass spectrometer (Bruker).
To validate the in vitro biochemical activities of CytA, we overexpressed and purified this enzyme as a soluble N-terminally His6-tagged protein from E. coli (Fig. 2a). Tris-Cl buffer was made O2 free by boiling, followed by cooling under N2 flow; NADH stock solution (dissolved in Tris-Cl), substrate stock solution (dissolved in DMSO), and enzyme solution (dissolved in Tris-Cl supplemented with 10% glycerin) were subjected to O2 eliminating process in the anaerobic workstations for at least two cycles (40 min for one cycle). CytA enzymatic activity was tested in 50 μL volume containing 50 mM Tris-Cl (pH 8.0), 25 μM substrate, 0.5 μM CytA, and 20 μM NADH, at 37 °C for 30 min. The reaction was quenched with the addition to 2 volumes MeOH. After centrifugation to remove protein, supernatants were analyzed with Agilent HPLC equipment using a Phenomenex Prodigy ODS column S5 (150 × 4.60 mm, 5 μ) and UV detection at 254 and 500 nm. Samples were eluted with a gradient elution of phase A containing 0.1% TFA in ddH2O and phase B containing 100% acetonitrile, at a flow rate of 1 mL/min.
Kinetic analyses of CytA with putative substrates 6–10, daunorubicin, doxorubicin, idarubicin, epirubicin and pirarubicin, involved a reaction volume of 20 μL consisting of 50 mM Tris-Cl (pH 8.0), 0.5 μM CytA, 20 μM NADH, […]
All assays were performed in triplicate and Km and Vmax values were calculated on the basis of curve fitting to the Michaelis-Menten equation: v = Vmax *[S]/(Km + [S]) (Supplementary Fig. 7).
For kinetics of CytA, Origin 9.0 (OriginLab Co.) was used to analyze on the basis of curve fitting to the Michaelis-Menten equation. Experiments were performed in triplicate independently. For antibacterial activity, experiments were performed in triplicate using 96-well plates.

B. subtilis BS01 = test: Antibacterial activity, broth dilution MIC; assay type: cell-based; conditions: Bacillus subtilis
Experimental: (§1) The antibacterial activities of compounds 1–13 were assessed using twofold serial dilutions of antibacterial agents in MH broth, according to previously reported standard methods provided by Clinical and Laboratory Standards Institute (CLSI)[30]. These compounds were tested for their antibacterial activities against Bacillus subtilis BS01, Staphyloccocus aureus ATCC 29213, Staphyloccocus aureus 745524, Bacillus thuringiensis BT01, and Enterococcus faecalis ATCC 29212 using a broth dilution method.

B. thuringiensis BT01 = test: Antibacterial activity, broth dilution MIC; assay type: cell-based; conditions: Bacillus thuringiensis
Experimental: as §1

E. faecalis ATCC 29212 = test: Antibacterial activity, broth dilution MIC; assay type: cell-based; conditions: Enterococcus faecalis
Experimental: as §1

[1] = tested on: Staphylococcus aureus 745524; test: Antibacterial activity, broth dilution MIC; assay type: cell-based
Experimental: as §1

[2] = tested on: Staphylococcus aureus ATCC 29213; test: Antibacterial activity, broth dilution MIC; assay type: cell-based
Experimental: as §1

[3] = Cytotoxic activity, MTT method; assay type: cell-based; conditions: human
Source text: (§2) All data were obtained in triplicate and are presented as means.

[4] = tested on: A549 human lung cancer cell line; test: Cytotoxic activity, MTT method; assay type: cell-based; conditions: A549, read-out: Cytotoxic activities IC50, A549
Source text: as §2

[5] = tested on: HeLa human cervical carcinoma cell line; test: Cytotoxic activity, MTT method; assay type: cell-based; conditions: read-out: Cytotoxic activities IC50, HeLa
Source text: as §2

[6] = tested on: HepG2 human hepatocellular carcinoma cell line; test: Cytotoxic activity, MTT method; assay type: cell-based; conditions: HepG2, read-out: Cytotoxic activities IC50, HepG2
Source text: as §2

[7] = tested on: MCF-7 human breast adenocarcinoma cell line; test: Cytotoxic activity, MTT method; assay type: cell-based; conditions: MCF7, read-out: Cytotoxic activities IC50, MCF-7
Source text: as §2

[8] = tested on: MDA-MB-231 human triple negative breast adenocarcinoma cell line; test: Cytotoxic activity, MTT method; assay type: cell-based; conditions: MDA-MB-231, read-out: Cytotoxic activities IC50, MDA-MB-231
Source text: as §2

[9] = tested on: MDA-MB-468 human triple negative breast adenocarcinoma cell line; test: Cytotoxic activity, MTT method; assay type: cell-based; conditions: MDA-MB-468, read-out: Cytotoxic activities IC50, MDA-MB-468
Source text: as §2

[10] = tested on: RKO human colorectal carcinoma cell line; test: Cytotoxic activity, MTT method; assay type: cell-based; conditions: read-out: Cytotoxic activities IC50, RKO
Source text: as §2

[11] = B. subtilis BS01, triplicate, read-out: MIC values, BS
[12] = B. thuringiensis BT01, triplicate, read-out: MIC values, BT
[13] = ATCC29212, E. faecalis ATCC 29212, triplicate, read-out: MIC values, EF
[14] = Staphylococcus aureus 745524, triplicate, read-out: MIC values, SA2
[15] = ATCC29213, Staphylococcus aureus ATCC 29213, triplicate, read-out: MIC values, SA1

COc1cccc2c1C(=O)c1c(O)c3c(c(O)c1C2=O)C[C@@](O)(C(C)=O)C[C@@H]3O[C@H]1C[C@H](N)[C@H](O)[C@H](C)O1 [Compound 22, daunorubicin, reference compound]
Km (CytA): 36.3 µM
kcat (CytA): 0.00967 s⁻¹

COc1cccc2c1C(=O)c1c(O)c3c(c(O)c1C2=O)C[C@@](O)(C(=O)CO)C[C@@H]3O[C@H]1C[C@H](N)[C@H](O[C@@H]2CCCCO2)[C@H](C)O1 [Compound 26, pirarubicin, reference compound]
Km (CytA): 49.3 µM
kcat (CytA): 0.0123 s⁻¹

COc1cccc2c1C(=O)c1c(O)c3c(c(O)c1C2=O)C[C@@](O)(C(=O)CO)C[C@@H]3O[C@H]1C[C@H](N)[C@@H](O)[C@H](C)O1 [Compound 25, epirubicin, reference compound]
Km (CytA): 38.6 µM
kcat (CytA): 0.00883 s⁻¹

CC[C@]1(O)Cc2c(O)c3c(c(O)c2[C@@H](O[C@H]2C[C@H](N(C)C)[C@H](O)[C@H](C)O2)C1)C(=O)c1c(O)cccc1C3=O [Compound 8, 10-decarbomethoxy-ε-rhodomycin]
Km (CytA): 12.7 µM
kcat (CytA): 0.00283 s⁻¹
MIC (B. subtilis BS01; [11]): 8 µg/mL (≈ 15.2 µM)
MIC (B. thuringiensis BT01; [12]): 8 µg/mL (≈ 15.2 µM)
MIC (E. faecalis ATCC 29212; [13]): 4 µg/mL (≈ 7.58 µM)
MIC [1, 14]: 8 µg/mL (≈ 15.2 µM)
MIC [2, 15]: 4 µg/mL (≈ 7.58 µM)
IC50 ([3]; Huvec-12 normal cell line, read-out: Cytotoxic activities IC50, Huvec-12): 6.92 µM
IC50 ([3]; L02 normal cell line, read-out: Cytotoxic activities IC50, L02): 19.8 µM
IC50 [4]: 6.24 µM
IC50 [5]: 1.31 µM
IC50 [6]: 1.99 µM
IC50 [7]: 21.1 µM
IC50 [8]: 7.65 µM
IC50 [9]: 16.8 µM
IC50 [10]: 3.28 µM

CN[C@H](CC(C)C)C(=O)N[C@H]1C(=O)N[C@@H](CC(N)=O)C(=O)N[C@H]2C(=O)N[C@H]3C(=O)N[C@H](C(=O)N[C@H](C(=O)O)c4cc(O)cc(O)c4-c4cc3ccc4O)[C@H](O)c3ccc(c(Cl)c3)Oc3cc2cc(c3O[C@@H]2O[C@H](CO)[C@@H](O)[C@H](O)[C@H]2O[C@H]2C[C@](C)(N)[C@H](O)[C@H](C)O2)Oc2ccc(cc2Cl)[C@H]1O [Van, Vancomycin, reference compound]
MIC (B. subtilis BS01; BS01, read-out: MIC values, BS): 0.5 µg/mL (≈ 0.345 µM)
MIC (B. thuringiensis BT01; BT01, read-out: MIC values, BT): 0.5 µg/mL (≈ 0.345 µM)
MIC (E. faecalis ATCC 29212; ATCC29212, read-out: MIC values, EF): 0.25 µg/mL (≈ 0.173 µM)
MIC ([1]; Staphylococcus aureus, 745524, read-out: MIC values, SA2): 1 µg/mL (≈ 0.69 µM)
MIC ([2]; Staphylococcus aureus, ATCC29213, read-out: MIC values, SA1): 0.5 µg/mL (≈ 0.345 µM)

CC(=O)[C@]1(O)Cc2c(O)c3c(c(O)c2[C@@H](O[C@H]2C[C@H](N)[C@H](O)[C@H](C)O2)C1)C(=O)c1ccccc1C3=O [Compound 24, idarubicin, reference compound]
Km (CytA): 28.5 µM
kcat (CytA): 0.00733 s⁻¹

CC[C@@]1(O)CCc2c(O)c3c(c(O)c2C1)C(=O)c1cccc(O)c1C3=O [Compound 12]
MIC (B. subtilis BS01; [11]): > 32 µg/mL
MIC (B. thuringiensis BT01; [12]): > 32 µg/mL
MIC (E. faecalis ATCC 29212; [13]): > 32 µg/mL
MIC [1, 14]: > 32 µg/mL
MIC [2, 15]: > 32 µg/mL
